Data set [1] can be described thus: Foam test of DOSS solutions with added foam control agent (based on ASTM D 1173-53). Type of data set: physicochemical. To be noted: 0.1 wt % foam control agent added to 0.1 wt % DOSS in water; for Initial foam height: ambient temperature. An excerpt: Dioctyl sodium sulfosuccinate (DOSS) is a commonly used surfactant in waterborne compositions. DOSS is capable of forming stable foams when dissolved in water. The foam control characteristics of various foam control agents may be assessed by measuring the foam generated by a 0.1 wt % aqueous solution of DOSS and comparing this to the foam generated after the addition of foam control agent to a 0.1 wt % DOSS solution. The DOSS utilized in these measurements was an Aerosol OT 75% surfactant obtained from Cytec Industries. The foaming and foam stability of DOSS were measured using a procedure based upon ASTM D 1173-53 at ambient temperature, typically 23° C.
In these tests, an aqueous solution of DOSS or the filtrate from the DOSS/foam control agent mixture is added from an elevated foam pipette to a foam receiver containing the same solution. The foam height is measured at the completion of the addition (“Initial Foam Height”) and the time required for the foam to dissipate at the air-liquid interface (“Time to 0 Foam”) is recorded. This test provides a comparison between the foaming characteristics of various aqueous compositions. The results for the foam control agents prepared in Examples 1-28 are reported in Table 1 along with comparative data for a 0.1 wt % solution of DOSS with no added foam control agent (Example 29).

The nature of data set [2]: Dynamic surface tension of aqueous solutions, maximum bubble pressure method. Format: physicochemical. To be noted: for γ at 0.1 wt %, 0.1 b/s / γ at 0.1 wt %, 1 b/s / γ at 0.1 wt %, 6 b/s / γ at 0.1 wt %, 20 b/s: 0.1 wt % in distilled water; for γ limiting, 0.1 b/s / γ limiting, 1 b/s / γ limiting, 6 b/s / γ limiting, 20 b/s: saturated solution made using 1.0 wt % in water.
From the text: Dynamic surface tension data were obtained for the soluble portion of these samples using the maximum bubble pressure method at bubble rates from 0.1 bubbles/sec (b/s) to 20 b/s.
The relative efficiency of surface tension reduction can be obtained by comparing surface tension reduction of solutions containing the same amount of different surfactants. Such data are given for 0.1 wt % solutions of the foam control agents at 0.1, 1, 6 and 20 bubbles/second (b/s). The limiting surface tensions at 0.1, 1, 6 and 20 b/s represent the lowest surface tensions in water which can be achieved at the given surface creation rates for a given surfactant regardless of the amount of surfactant used and is used to evaluate the effectiveness of a surfactant. In most cases the limiting surface tension was taken at 1.0 wt % since the foam control agent was insoluble at this concentration. In the case where the foam control agent was soluble at 1.0 wt %, the limiting surface tension was taken at 5.0 wt % (where the samples were insoluble). These values give information about the relative ability to a surfactant to reduce surface defects under near-equilibrium conditions (0.1 b/s) through very dynamic conditions (20 b/s).

For the compound `CCCCC(CC)COCC(O)CN(CCN(CC(O)COCC(CC)CCCC)CC(O)COCC(CC)CCCC)CC(O)COCC(CC)CCCC` (centres unmarked) [EDA/4 EHGE], in data set [1], the “Foam height after 1 min” value is 2.5 cm, the “Foam height after 10 min” value is 2.1 cm and the Initial foam height amounted to 3.0 cm. In data set [2], the “γ at 0.1 wt %, 0.1 b/s” value was determined as 60.7 dyne/cm; the “γ at 0.1 wt %, 1 b/s” value is 67.9 dyne/cm; the “γ at 0.1 wt %, 6 b/s” value stood at 71.0 dyne/cm; the “γ at 0.1 wt %, 20 b/s” value was 71.7 dyne/cm. For the same compound, in data set [2], the “γ limiting, 0.1 b/s” value stood at 44.4 dyne/cm; the “γ limiting, 1 b/s” value is given as 50.6 dyne/cm; the “γ limiting, 6 b/s” value was 51.0 dyne/cm; the “γ limiting, 20 b/s” value is recorded as 52.1 dyne/cm.
Turning to `CC(C)COCC(O)CN(CCN(CC(O)COCC(C)C)CC(O)COCC(C)C)CC(O)COCC(C)C` (centres unmarked) [EDA/4 IBGE], in data set [1], the “Foam height after 1 min” value is 1.5 cm, the “Foam height after 10 min” value is listed as 1.2 cm and the Initial foam height came out at 2.0 cm. In data set [2], the “γ at 0.1 wt %, 0.1 b/s” value is given as 37.6 dyne/cm; the “γ at 0.1 wt %, 1 b/s” value is recorded as 41.7 dyne/cm; the “γ at 0.1 wt %, 6 b/s” value is listed as 51.4 dyne/cm; the “γ at 0.1 wt %, 20 b/s” value came to 65.5 dyne/cm. In addition, in data set [2], the “γ limiting, 0.1 b/s” value came to 34.8 dyne/cm; the “γ limiting, 1 b/s” value is 36.7 dyne/cm; the “γ limiting, 6 b/s” value is 40.3 dyne/cm; the “γ limiting, 20 b/s” value is reported as 49.4 dyne/cm.
For `CCCCOCC(O)CNCCCCCCN(CC(O)COCCCC)CC(O)COCCCC` (centres unmarked) [HDA/3 BGE], in data set [1], the “Foam height after 1 min” value is recorded as 0 cm, the “Foam height after 10 min” value was 0 cm and the Initial foam height is recorded as 1.2 cm. Moreover, in data set [2], the “γ at 0.1 wt %, 0.1 b/s” value is given as 40.3 dyne/cm; the “γ at 0.1 wt %, 1 b/s” value worked out at 43.1 dyne/cm; the “γ at 0.1 wt %, 6 b/s” value worked out at 47.5 dyne/cm; the “γ at 0.1 wt %, 20 b/s” value amounted to 55.4 dyne/cm. Moreover, in data set [2], the “γ limiting, 0.1 b/s” value came out at 37.9 dyne/cm; the “γ limiting, 1 b/s” value is recorded as 39.1 dyne/cm; the “γ limiting, 6 b/s” value amounted to 40.7 dyne/cm; the “γ limiting, 20 b/s” value was 44.4 dyne/cm.
In the case of `CCCCOCC(O)CN(CCCCCCN(CC(O)COCCCC)CC(O)COCCCC)CC(O)COCCCC` (centres unmarked) [HDA/4 BGE], in data set [1], the “Foam height after 1 min” value came to 1.3 cm, the “Foam height after 10 min” value stood at 1.2 cm and the Initial foam height came out at 1.5 cm. Besides, in data set [2], the “γ at 0.1 wt %, 0.1 b/s” value stood at 42.9 dyne/cm; the “γ at 0.1 wt %, 1 b/s” value is 55.9 dyne/cm; the “γ at 0.1 wt %, 6 b/s” value amounted to 67.6 dyne/cm; the “γ at 0.1 wt %, 20 b/s” value turned out to be 70.8 dyne/cm. Besides, in data set [2], the “γ limiting, 0.1 b/s” value came out at 37.3 dyne/cm; the “γ limiting, 1 b/s” value is reported as 39.0 dyne/cm; the “γ limiting, 6 b/s” value was 40.8 dyne/cm; the “γ limiting, 20 b/s” value was determined as 41.9 dyne/cm.
Turning to `CCCCOCC(O)CN(CCCC(C)CN(CC(O)COCCCC)CC(O)COCCCC)CC(O)COCCCC` (centres unmarked) [MPD/4 BGE], in data set [1], the “Foam height after 1 min” value is reported as 1.5 cm, the “Foam height after 10 min” value turned out to be 0.5 cm and the Initial foam height was 2.5 cm. In data set [2], the “γ at 0.1 wt %, 0.1 b/s” value stood at 42.8 dyne/cm; the “γ at 0.1 wt %, 1 b/s” value is given as 55.7 dyne/cm; the “γ at 0.1 wt %, 6 b/s” value turned out to be 67.5 dyne/cm; the “γ at 0.1 wt %, 20 b/s” value amounted to 67.7 dyne/cm. In addition, in data set [2], the “γ limiting, 0.1 b/s” value is listed as 35.3 dyne/cm; the “γ limiting, 1 b/s” value turned out to be 36.4 dyne/cm; the “γ limiting, 6 b/s” value is recorded as 38.9 dyne/cm; the “γ limiting, 20 b/s” value is given as 41.5 dyne/cm.
Take `CCCCOCC(O)CNC1CCC(CC2CCC(N(CC(O)COCCCC)CC(O)COCCCC)CC2)CC1` (centres unmarked) [PACM/3 BGE]: in data set [1], the “Foam height after 1 min” value is 2.8 cm, the “Foam height after 10 min” value amounted to 1.5 cm and the Initial foam height was determined as 2.5 cm. Besides, in data set [2], the “γ at 0.1 wt %, 0.1 b/s” value worked out at 50.2 dyne/cm; the “γ at 0.1 wt %, 1 b/s” value stood at 59.2 dyne/cm; the “γ at 0.1 wt %, 6 b/s” value is given as 69.1 dyne/cm; the “γ at 0.1 wt %, 20 b/s” value turned out to be 71.8 dyne/cm. In addition, in data set [2], the “γ limiting, 0.1 b/s” value is reported as 47.9 dyne/cm; the “γ limiting, 1 b/s” value was found to be 54.0 dyne/cm; the “γ limiting, 6 b/s” value stood at 63.5 dyne/cm; the “γ limiting, 20 b/s” value is recorded as 65.8 dyne/cm.
Consider `CCCCOCC(O)CN(CC(O)COCCCC)C1CCC(CC2CCC(N(CC(O)COCCCC)CC(O)COCCCC)CC2)CC1` (centres unmarked) [PACM/4 BGE], for which, in data set [1], the “Foam height after 1 min” value was found to be 2.1 cm, the “Foam height after 10 min” value amounted to 1.8 cm and the Initial foam height came to 2.7 cm. Further, in data set [2], the “γ at 0.1 wt %, 0.1 b/s” value is 70.6 dyne/cm; the “γ at 0.1 wt %, 1 b/s” value worked out at 71.8 dyne/cm; the “γ at 0.1 wt %, 6 b/s” value was 72.0 dyne/cm; the “γ at 0.1 wt %, 20 b/s” value is 72.4 dyne/cm. In addition, in data set [2], the “γ limiting, 0.1 b/s” value is listed as 58.5 dyne/cm; the “γ limiting, 1 b/s” value stood at 68.5 dyne/cm; the “γ limiting, 6 b/s” value amounted to 70.5 dyne/cm; the “γ limiting, 20 b/s” value worked out at 71.0 dyne/cm.

The record behind these values is US6746623B2, “Alkyl glycidyl ether-capped diamine foam controlling agent” (Air Products and Chemicals, Inc., priority 2002, dated 2004).
